US20070197573A1, “Compositions and methods in the treatment of bone metabolic disorders” (priority 2005, published 2007)

Legend:
delta receptors = delta receptors (Homo sapiens, UniProt P41143); conditions: in vitro; cited from earlier work
μ opioid receptor = μ opioid receptor (Homo sapiens, UniProt P35372); conditions: cited from earlier work
human osteoblasts = conditions: in vitro treatment; cited from earlier work
[1] = cited from earlier work
IL-1β = IL-1β level within the bone after sustained morphine infusion; type: in vivo, mice; conditions: sarcoma-induced
Excerpt: (§1) The peripheral opioid antagonists according to the invention provide a conjunctive therapy for managing bone metabolism while opiates are in use. Specific data describing the metabolic effects of opiates on bone metabolism are provided in the examples.

sarcoma cells = experiment: Tumor growth in vitro; type: cell-based
Excerpt: as §1

osteoclasts = experiment: Osteoclast count by TRAP staining in metaphysis of distal femur; type: in vivo, mice
Excerpt: Previous studies have shown that osteolytic cancers, such as the sarcoma cell line used in these studies, upregulate osteoclasts within the bone. To determine whether the enhanced morphine-induced bone loss is mediated through further upregulation of osteoclasts, osteoclasts were stained and counted within the metaphysis of the distal head of the femur using tartrate resistant acid phosphatase (TRAP) staining.

[2] = system: sarcoma-induced bone loss; experiment: Murine bone cancer model (sarcoma cells injected into femur), radiographic bone loss, fracture and pain under sustained morphine infusion; type: in vivo, mice
[3] = drug-dependent mice; cited from earlier work
[4] = sustained morphine administration

delta receptors, sequence (P41143 whole entry): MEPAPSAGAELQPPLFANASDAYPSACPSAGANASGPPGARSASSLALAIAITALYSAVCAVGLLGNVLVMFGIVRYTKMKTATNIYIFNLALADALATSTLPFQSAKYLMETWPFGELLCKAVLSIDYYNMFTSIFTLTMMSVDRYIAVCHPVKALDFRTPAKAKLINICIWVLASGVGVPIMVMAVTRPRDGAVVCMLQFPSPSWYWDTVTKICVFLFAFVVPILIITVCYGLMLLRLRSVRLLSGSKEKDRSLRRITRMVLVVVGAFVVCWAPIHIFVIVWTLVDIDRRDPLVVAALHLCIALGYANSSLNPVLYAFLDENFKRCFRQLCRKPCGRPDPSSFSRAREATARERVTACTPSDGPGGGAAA
μ opioid receptor, sequence (P35372 whole entry, species assumed): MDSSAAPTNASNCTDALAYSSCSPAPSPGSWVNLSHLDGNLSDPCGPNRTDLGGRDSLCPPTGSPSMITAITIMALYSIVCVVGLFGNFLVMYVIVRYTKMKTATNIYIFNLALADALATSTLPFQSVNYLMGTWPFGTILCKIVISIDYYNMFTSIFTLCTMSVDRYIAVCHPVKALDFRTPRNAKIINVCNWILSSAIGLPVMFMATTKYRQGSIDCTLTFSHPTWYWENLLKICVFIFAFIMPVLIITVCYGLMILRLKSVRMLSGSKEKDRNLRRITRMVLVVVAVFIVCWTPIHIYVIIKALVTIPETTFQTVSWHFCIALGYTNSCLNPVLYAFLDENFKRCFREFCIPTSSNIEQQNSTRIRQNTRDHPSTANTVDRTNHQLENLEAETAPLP

## O=C1C(=Cc2ccccc2)C[C@@]2(O)[C@H]3Cc4ccc(O)c5c4[C@@]2(CCN3CC2CC2)[C@H]1O5 [BNTX, 7-benzylidenenaltrexone]
Delta receptors
  type of activity at the delta receptor: inverse agonist
μ opioid receptor
  type of activity at the mu receptor: inverse agonist

## O=C(O)Cc1ccccc1Nc1c(Cl)cccc1Cl [Diclofenac]
Human osteoblasts
  concentration giving a significant decrease of cell proliferation: 6 micrograms/ml
[1]
  therapeutic concentration in serum: approximately 1.5 micrograms/ml

## COc1cccc(C2(O)CCCCC2CN(C)C)c1 (centres unmarked) [Tramadol]
Human osteoblasts
  concentration giving a significant decrease of cell proliferation: greater than 20 micrograms/ml
[1]
  therapeutic concentration in serum: 0.25 micrograms/ml

## CN1CC[C@]23c4c5ccc(O)c4O[C@H]2[C@@H](O)C=C[C@H]3[C@H]1C5 [morphine]
IL-1β
  IL-1β within the bone: upregulated
Sarcoma cells
  tumor growth in vitro: did not alter
osteoclasts; control animals (no sarcoma)
  osteoclast TRAP staining vs saline: no difference in osteoclast staining
osteoclasts; sarcoma treated animals, sustained morphine infusion
  osteoclast TRAP staining vs saline infusion: increased sarcoma-induced upregulation of osteoclasts
[2]; 6 days after sarcoma injection
  sarcoma-induced bone loss (radiograph rating) vs saline infusion: no difference between morphine or saline treated mice
[2]; 10 days and 12 days after sarcoma injection into the femur
  incidence of sarcoma-induced fracture vs saline infusion: doubled
[2]; 12 days after femoral sarcoma injection, sustained morphine infusion
  sarcoma-induced bone loss (radiograph rating) vs saline infusion: increased sarcoma-induced bone loss
[2]; in vivo
  tumor burden in vivo: did not alter
[2]; [4]
  sarcoma-induced pain: enhances sarcoma-induced pain
  time to fracture: accelerated time to fracture

## CTAP
[3]
  withdrawal elicited, compared with naloxone: significantly less withdrawal than naloxone
